Results taken from patent publication US4049808A, “2-Phenyl ethyl morpholine compounds” (Imperial Chemical Industries Limited, priority 1974, dated 1977).

Legend:
[1] = Oral LD50 in mice; details: mouse, in vivo
[2] = test system: reserpine-induced hypothermia; assay: Reversal of reserpine-induced hypothermia in mice (RHL test); format: in vivo; details: reserpine 2 mg./kg. s.c., T0 to T4 (4 hours)
Protocol: The reversal of reserpine-induced hypothermia, known as the RHL test, is carried out as follows:
Mice are kept in a constant temperature room maintained at 21 ± 1° C. Each member of groups of 4 mice is given reserpine (2 mg. of base per kg. bodyweight, given subcutaneously as the acetate). Seventeen hours later the oesophageal temperature (T0) of each mouse is recorded by means of an orally-inserted probe coupled to an electric thermometer which is calibrated in degrees Centrigrade and which can be read to 0.1° C. Immediately after the temperature measurement the mice are dosed orally with the test compound, or with imipramine, each mouse in a group of 4 being given the same substance, and the oesophageal temperatures are again recorded after 4 hours (T4). The compound under test is dosed at serial dilutions, e.g. 100, 30, 10, 3, 1, 0.3, 0.1 mg./kg. Imipramine is used as the control. […] At 1 mg./kg. it produces an average rise of 1.7° C. A test compound which at a certain does level gives a rise in temperature equal to or greater than that given by 1 mg./kg. of imipramine, dosed to a different set of mice on the same day, is adjudged "active" at that dose.

## c1ccc(Oc2ccccc2CCC2CNCCO2)cc1 (stereo not drawn) [2-[β-(2-phenoxyphenyl)ethyl]morpholine]
[1]
  LD50: 1000 mg/kg

## Cc1ccccc1CCC1CNCCO1 (stereo not drawn) [2-[β-(2-methylphenyl)ethyl]morpholine]
[1]
  LD50: 550 mg/kg

## CN(C)CCCN1c2ccccc2CCc2ccccc21 [imipramine]
[2]; imipramine 1 mg./kg. oral
  average rise in the temperature of a reserpinised mouse: 1.7 °C
[2]; imipramine 3 mg./kg. oral
  average rise in the temperature of a reserpinised mouse: 3 °C
